Tests used:
[1] = system: HCT-116; assay: Cellular proliferation assay (Alamar blue), HCT-116; assay type: cell-based; conditions: Homo sapiens; HCT-116 cells; 10% FCS; 72 h with compound; Alamar blue 4 h; read-out: pIC50 HCT-116 (converted)
Procedure, shortened: (§1)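 Cells in 10% FCS (37° C., 5% CO2) were seeded 24 hours before a 72-hour compound exposure. Viable cells were measured by Alamar blue fluorescence (544 nm/590 nm) after dye incubation of 4 h (HCT-116), 6 h (U87-MG) or 24 h (PC3, A2780). Effect is relative to control cells.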

[2] = system: A2780; assay: Cellular proliferation assay (Alamar blue), A2780; assay type: cell-based; conditions: Homo sapiens, A2780, A2780 cells; 10% FCS; 72 h with compound; Alamar blue 24 h; read-out: pIC50 A2780 (converted)
Procedure, shortened: as §1

[3] = system: U87-MG; assay: Cellular proliferation assay (Alamar blue), U87-MG; assay type: cell-based; conditions: Homo sapiens, U-87 MG; U87-MG cells; 10% FCS; 72 h with compound; Alamar blue 6 h; read-out: pIC50 U87MG (converted)
Procedure, shortened: as §1

[4] = system: MDA-MB-231; assay: Cellular proliferation assay (Alamar blue), MDA-MB-231; assay type: cell-based; conditions: Homo sapiens, MDA-MB-231, MDA-MB-231 cells; 10% FCS; 72 h with compound; Alamar blue 24 h; read-out: pIC50 MDA/MB231 (converted)
Procedure, shortened: (§2)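 Viable cell number is determined by Alamar blue conversion after cells are treated with compound for 72 hours, following 24 hours of growth without compound in 10% FCS. The effect is calculated against control cells.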

[5] = system: H1299; assay: Cellular proliferation assay (Alamar blue), H1299; assay type: cell-based; conditions: Homo sapiens, NCI-H1299, H1299 cells; 10% FCS; 72 h with compound; Alamar blue 4 h; read-out: pIC50 H1299 (converted)
Procedure, shortened: as §2

[6] = biological target: T1, PLK4 (h) (Homo sapiens, UniProt O00444); assay: PLK-4 human kinase scintillation proximity assay (SPA); assay type: biochemical; conditions: 1 μM ATP, 60 minutes at r.t., read-out: PLK4 pIC50 (converted)
T1 sequence (O00444 1-970): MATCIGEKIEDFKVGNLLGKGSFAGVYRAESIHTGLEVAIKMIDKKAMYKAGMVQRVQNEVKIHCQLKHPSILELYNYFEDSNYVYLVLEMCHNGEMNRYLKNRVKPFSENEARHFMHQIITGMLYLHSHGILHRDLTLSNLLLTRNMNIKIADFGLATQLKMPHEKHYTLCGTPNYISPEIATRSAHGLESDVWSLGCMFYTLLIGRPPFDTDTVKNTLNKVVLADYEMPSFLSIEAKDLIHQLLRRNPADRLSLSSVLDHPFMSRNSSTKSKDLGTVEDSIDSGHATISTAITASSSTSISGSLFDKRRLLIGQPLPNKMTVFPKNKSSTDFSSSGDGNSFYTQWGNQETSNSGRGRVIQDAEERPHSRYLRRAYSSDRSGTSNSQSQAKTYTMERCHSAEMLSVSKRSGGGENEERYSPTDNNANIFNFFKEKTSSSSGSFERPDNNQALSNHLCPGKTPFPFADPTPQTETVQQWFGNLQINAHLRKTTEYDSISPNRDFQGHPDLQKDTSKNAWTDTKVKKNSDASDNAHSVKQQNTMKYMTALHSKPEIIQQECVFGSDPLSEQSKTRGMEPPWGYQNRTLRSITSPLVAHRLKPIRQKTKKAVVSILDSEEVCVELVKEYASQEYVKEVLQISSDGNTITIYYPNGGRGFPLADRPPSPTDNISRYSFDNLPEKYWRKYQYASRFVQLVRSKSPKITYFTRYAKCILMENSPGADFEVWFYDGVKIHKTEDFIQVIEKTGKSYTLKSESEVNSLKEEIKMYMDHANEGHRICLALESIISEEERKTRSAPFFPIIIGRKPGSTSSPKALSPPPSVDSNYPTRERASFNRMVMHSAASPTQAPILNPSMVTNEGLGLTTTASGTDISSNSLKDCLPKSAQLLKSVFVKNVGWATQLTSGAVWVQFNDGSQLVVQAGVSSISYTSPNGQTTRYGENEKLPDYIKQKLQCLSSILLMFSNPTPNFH
Procedure, shortened: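 Human PLK4 (19 μg/ml) reacted with 10 μM biotinylated peptide, 1 μM ATP plus 2 nM [γ-33P]ATP in HEPES pH 8.0 with MgCl2, NaCl, NaF and DTT for 60 min at r.t. After an EDTA stop, phosphorylated substrate was captured on streptavidin PVT SPA beads and scintillation imaged.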

[7] = system: PC3; assay: Cellular proliferation assay (Alamar blue), PC3; assay type: cell-based; conditions: Homo sapiens, PC-3, PC-3 cells; 10% FCS; 72 h with compound; Alamar blue 24 h; read-out: pIC50 PC-3 (converted)
Procedure, shortened: as §1

SMILES | IC50 [1] | IC50 [2] | IC50 [3] | IC50 [4] | IC50 [5] | melting point | IC50 [6] | IC50 [7]
COc1ccc2cc1OCC(=O)N(C)CCCN(C)Cc1c[nH]c3ncnc(c13)N2 [Compound 7] | 501 nM | 631 nM | 1260 nM | 1580 nM | 1000 nM | 267.9 °C | 39.8 nM | 2000 nM
COc1ccc2cc1OCC(=O)N(C)CCN(C)Cc1c[nH]c3ncnc(c13)N2 [Compound 10] | > 10000 nM | > 10000 nM | > 10000 nM | > 10000 nM | > 10000 nM | 249.3 °C | 126 nM | > 10000 nM
COc1ccc(OCCCOc2ccc3cc2OCC(=O)N(C)CCCN(C)Cc2c[nH]c4ncnc(c24)N3)cc1 [Compound 78] | 1260 nM | 1260 nM | 3980 nM | 6310 nM | 2510 nM | 222.2 °C | 50.1 nM | 5010 nM
CN1CCCN(C)C(=O)COc2cc(ccc2OCCNc2ccc(Cl)cc2)Nc2ncnc3[nH]cc(c23)C1 [Compound 79] | 251 nM | 200 nM | 3160 nM | 5010 nM | 794 nM | 269.3 °C | 100 nM | 3980 nM

Continued, values first:

IC50 [1] | IC50 [2] | IC50 [3] | IC50 [4] | IC50 [5] | melting point | IC50 [6] | IC50 [7] | SMILES
100 nM | 79.4 nM | 1580 nM | 2510 nM | 501 nM | 237.8 °C | 25.1 nM | 3980 nM | CCOCCOc1ccc2cc1OCC(=O)N(C)CCCN(C)Cc1c[nH]c3ncnc(c13)N2 [Compound 70]
794 nM | 631 nM | > 10000 nM | > 10000 nM | > 10000 nM | 237.4 °C | 39.8 nM | > 10000 nM | CCOCCOc1ccc2cc1OCC(=O)N(C)CCCNCc1c[nH]c3ncnc(c13)N2 [Compound 75]
251 nM | 200 nM | 501 nM | 2000 nM | 631 nM | 221 °C | 79.4 nM | > 10000 nM | CCOCCOc1ccc2cc1OCC(=O)N(C)CCCN(C)Cc1cn(C)c3ncnc(c13)N2 [Compound 81]

From US8318731B2, “Pyrrolopyrimidines” (Janssen Pharmaceutica NV, priority 2007, dated 2012)
